# Measurements as given in a melting point compilation (Tetko et al.; mined from patent text by program, amines drawn as free bases though some values may be those of a salt).
row,SMILES,melting point
1,CN(C)CCCNC(=O)c1cccc([N+](=O)[O-])c1Cl,122 to 125 °C
2,ClCc1c2ccccc2c(CCl)c2ccccc12,238 to 243 °C
3,NS(=O)(=O)c1ccc(-c2cccc(-c3nc(-c4ccc(F)cc4)cc(C(F)(F)F)n3)c2)s1,228 °C
4,CCCCC(=O)CC(=O)c1ccc(C2CCC(CC)CC2)cc1 (stereo not given),90 °C
5,Cc1ccc2c3c(ccc2n1)OCC(CN1CC=C(c2c[nH]c4c(F)cccc24)CC1)O3 (stereo not given),205 to 210 °C
6,COc1ccc(C=C(C)C(=O)O)cc1F,167 to 169 °C
7,CCOC(=O)C(CNC(=O)CSC(=O)c1ccccc1)NC(=O)CSC(=O)c1ccccc1 (stereo not given),130 to 131 °C
8,CC1(C)C2CC[C@]1(C)C(=O)C(C(=O)Nc1cc(C(F)(F)F)cc(C(F)(F)F)c1)C2=O (stereo not given in full),68 to 72 °C
9,CCOCc1cc2cc(Cl)ccc2oc1=O,100 to 101 °C
10,Cc1c(CC(C)(C)C(=O)O)n(Cc2ccc(Cl)cc2)c2ccc(OCc3ccc4ccccc4n3)cc12,215 to 217 °C
11,O=C(O)CN1C(=O)c2cccc3c(C(=O)c4ccccc4)ccc(c23)C1=O,310 to 312 °C
12,O=c1c2cc(I)ccc2nc(Cl)n1-c1ccc(Cl)cc1,178 to 180 °C
13,COc1cc2ccc3c4cc(OC)c(OC)cc4nc(C)c3c2cc1OC,255 to 257 °C
14,C#Cc1ccc2c(c1)C(c1ccccc1)=NC(C)c1c(C(=O)OCC)ncn1-2 (stereo not given),197 to 199 °C
15,CNC(=O)N1CCC(C(Nc2ccc(F)cc2)c2ccc(F)cc2)CC1 (stereo not given),86 to 90 °C
16,COC(=O)CCc1cc2cc(Cl)ccc2n1S(=O)(=O)c1ccc2c(c1)CCN2C(C)=O,129 °C
17,CC(=O)SC1(C(=O)O)CCCC1,120 to 122 °C

row,SMILES,melting point
1,O=C(Nc1ccc(S(=O)(=O)N2CCC(CNC[C@H](O)COc3ccc(O)cc3)CC2)cc1)Nc1ccccn1,189 °C
2,COc1cc2[nH]c(C)c(CCN3CCN(NC(=O)c4ccc(F)cc4)CC3)c2cc1OC,116 to 119 °C
3,CCc1cc(C)cc(CC)c1CO,71 to 72 °C
4,COC(=O)c1cnc2c(C)cc(C)cc2c1-c1ccccc1Cl,117 to 118 °C
5,CC(=O)NC[C@H]1CN(c2ccc(C(=O)c3cnc4c([N+](=O)[O-])cccn34)cc2)C(=O)O1,229 to 230 °C
6,CNc1nc(C)c(C(=O)c2ccc(N)c(N)c2)s1,115 to 125 °C
7,O=C(O)C1=Cc2cc(Cl)c(Oc3ccc(Cl)cc3Br)cc2OC1C(F)(F)F (stereo not given),224 to 226 °C
8,O=C(Oc1ccccc1)OC1c2nccnc2C(=O)N1c1ccc2ccc(Cl)nc2n1 (stereo not given),270 °C
9,COc1ccc(NC(C)=O)cc1NC(=O)NC(=O)c1cc(F)c(F)cc1Cl,225 to 228 °C
10,N#CCCNC(=O)C1=CC(CF)(CF)Oc2ccc([N+](=O)[O-])cc21,173 to 174 °C
11,CC(C)Nc1cccnc1N1CCN(C(=O)c2ccc(C(=O)N(CCO)CCO)cn2)CC1,130 to 132 °C
12,Cc1nc2c(c(=O)[nH]1)-c1ccc(Cl)cc1C(c1ccccc1F)=NC2,262 to 264 °C
13,Cc1nc(-c2ccc(C(F)(F)F)cc2)oc1CSc1ccc(OCC(=O)O)cc1,131 to 133 °C
14,CC(C)Nc1cccnc1N1CCN(C(=O)c2ccc(C(=O)N3CCN(C4CCCC4)CC3)cc2)CC1,181 to 182 °C
15,O=C(Nc1ccccc1)N1CCC(c2nn(-c3ccccc3)c3cc(F)ccc23)CC1,163 to 165 °C
16,COC(=O)C1N2C(=O)C(N3C(=O)c4ccccc4C3=O)C2SCC1(C)O (stereo not given),203 °C
17,Cc1cc(C#N)c(C)c(C(=O)Nc2ccc(F)c(C)n2)n1,201 °C

# Next, values leading:
row,melting point,SMILES
1,> 260 °C,COc1cc2c(cc1OC)-c1cc3cc(O)ccc3n1C2=O
2,99 to 100 °C,CCOC(=O)c1sc(N)nc1C(C)(C)C
3,140 to 141 °C,CCNC(=S)NCCSCc1[nH]cnc1C
4,98 to 99 °C,CCCCCCCCCCS(=O)(=O)N[C@H]1CCCNC(=O)C1
5,232 to 233 °C,Cc1nc(-c2ccsc2)c2nc(-c3ccccc3)cc-2[nH]1
6,268 °C,COc1ccc(-c2[nH]nc3c2C(=O)c2c(NC(=O)Cc4ccc(NC(C)=O)cc4)cccc2-3)cc1
7,195 °C,COc1ccc(S(=O)(=O)N(CC(N)=O)c2ccc(Cl)cc2Cc2c(Cl)cccc2Cl)cc1OC
8,144 to 146 °C,Cn1c(-c2ccc(-c3ccco3)cc2)cnc1[C@H](Cc1ccccn1)N(C=O)c1cc2cc(Cl)ccc2o1
9,133 to 135 °C,Cc1ccccc1C(=O)c1ccc(CC(=O)O)n1C
10,173 to 175 °C,O=C(c1ccc(Cc2c(Cl)cc(NN=Cc3ccccc3)cc2Cl)cc1)c1cnc(Cl)c(Cl)c1
11,128 to 129 °C,C=CCC1(C)OC(=O)Nc2ccc(-c3cccc(Cl)c3)cc21 (stereo not given)
12,85 to 86 °C,CCC(=O)C(CCCCCl)NC(=O)c1ccc(C)cc1 (stereo not given)
13,93 °C,Cc1c(F)c(Oc2ccc(F)c(F)c2)nc(Oc2cc(C(F)(F)F)nn2C)c1F
14,143 to 144 °C,NC(=O)c1c(F)cccc1C(F)(F)F
15,42 to 43 °C,COc1ccccc1N1CCN(CC(O)COc2ccc(CC(C)=O)cc2)CC1 (stereo not given)
16,136 °C,C#C/C(=C\c1cccnc1)c1c[nH]c2ccc(OC)cc12
17,140 °C,O=C(O)CCC(=O)Oc1c(Cc2ccccc2)ccc2ccccc12
18,220 to 221 °C,COc1cc(OC)c2c(=O)[nH]c(-c3cc(C)c(OCCN4C(=O)NC(c5ccccc5)C4=O)c(C)c3)nc2c1 (stereo not given)

row,melting point,SMILES
1,155 to 157 °C,CC(=O)N1CCN(CC(=O)Nc2ccc3[nH]c(=O)c4cccc5c4c3c2C5)CC1
2,216 to 222 °C,Nc1ccc2[nH]c3cc(-c4ccccc4Cl)c4c(c3c2c1)C(=O)NC4=O
3,112 to 115 °C,CC1=C(C(=O)OCCCN(C)C)C(c2ccccc2)C2=C(COC2=O)N1 (stereo not given)
4,86.1 to 87.1 °C,C=CCOc1ccc(C(=O)CC(C#N)(CCC)c2ccc(OC)cc2OC)cc1 (stereo not given)
5,69 to 71 °C,O=c1oc(-c2ccccc2)cc(O)c1C(CC1CC1)SC1CCCCC1 (stereo not given)
6,268 to 270 °C,COc1cc(Nc2c(C#N)cnc3cc(-c4ccc(C=O)cc4)sc23)cc(OC)c1OC
7,200 to 210 °C,CNC(=O)CSC(c1ccccc1)(c1ccccc1)c1ccccc1
8,97.7 °C,CC1C(=CC2C(C(=O)O)C2(C)C)C1(F)F (stereo not given)
9,194 to 196 °C,COc1ccc(CC2CCC3NC(=O)CCC3C2)cc1 (stereo not given)
10,135 to 137 °C,CCn1nc(C(=O)NC2CN(C)CCN(Cc3cccc(C)c3)C2)c2ccccc21 (stereo not given)
11,151 to 152 °C,CCCCOc1c(C(=O)O)n(CC(C)C)c(=O)c2ccc(OCc3ccccc3)cc12
12,155 to 157 °C,COCC1CN(c2ccc3ccc(O)cc3c2)C(=O)O1 (stereo not given)
13,163 to 164 °C,COc1ccc(Oc2ccc3c(c2)OCC(=O)N3)cc1
14,138 to 139 °C,CCOc1nn(-c2ccc(C(F)(F)F)cn2)cc1CCCCOc1cc(CCC(=O)O)n(-c2ccccc2)n1
15,234 °C,NS(=O)(=O)c1cccc(-c2cc(-c3nc(-c4ccc(F)c(F)c4)cc(C(F)(F)F)n3)ccn2)c1
16,188 to 189 °C,Cc1cnc(-c2cc3c(O)cccc3s2)o1
17,140 to 142 °C,CNC(=O)C(C)Oc1cc(Oc2nn(C)c(C(F)(F)F)c2Cl)ccc1[N+](=O)[O-] (stereo not given)
18,92 to 94 °C,COc1ccc(C(=O)c2noc(CC#N)n2)cc1
